Experimental data published in US11666547B2, “Methods for treating cognitive deficits in a subject having schizophrenia, bipolar disorder, or psychiatric depression, and exhibiting cognitive deficits by administering an antagonist of the Na+-K+-2Cl-cation-chloride cotransporter isoform 1 (NKCC1)” (NORTHWESTERN UNIVERSITY, priority 2019, dated 2023).

Tests used:
[1] = tested on: CaMK2A+/- mice; format: in vivo; conditions: for Discrimination index, rescue of NOR deficit, single agent at the dose used in the combination: CaMKIIα+/- mice, agent alone
Text: (§1) (See Yamasaki et al., “Alpha-CaMKII deficiency causes immature dentate gyrus, a novel candidate endophenotype of psychiatric disorders,” Molecular Brain, 1 (2008) 6; and McCarthy et al., “Microduplications of 16p11.2 are associated with schizophrenia,” Nat. Gene., 41 (2009) 1223-1227; respectively). Both models are relevant to human conditions. CaMK2A loss causes cognitive dysfunction and has been implication in psychiatric disorders including schizophrenia. (See Yamasaki et al., “Alpha-CaMKII deficiency causes immature dentate gyrus, a novel candidate endophenotype of psychiatric disorders,” Molecular Brain, 1 (2008) 6; Kool et al., “CAMK2-dependent Signaling in Neurons is Essential for Survival,” J. Neuroscience: the official journal of the Society for Neuroscience, 39 (2019) 5424-5439; and Papaleo et al., “Mouse models of genetic effects on cognition: relevance to schizophrenia,” Neuropharmacology, 62 (2012) 1204-1220). […] (See Niarchou et al., “Psychiatric disorders in children with 16p11.2 deletion and duplication,” Translational psychiatry, 9 (2019) 8). […] (FIG. 9).

[2] = tested on: scPCP-treated mice; assay: PCP- and amphetamine-induced increase in locomotor activity in scPCP-treated mice; format: in vivo; conditions: bumetanide 0.3 mg/ml, icy
Text: This can be interpreted as evidence for ability to treat delusions and hallucinations in psychotic disorders, including schizophrenia, major depression, bipolar disorder, various dementias, including vascular dementia and other neurodegenerative disorders. These finding have immediate translational value, as bumetanide is an already approved drug that could be promptly used to improve cognition in patients with cognitive impairment, psychosis, or negative symptoms in the disorders cited above.

[3] = tested on: PCP model of cognitive impairment; assay: Prevention of development of cognitive impairment, given prior to PCP treatment; format: in vivo, mice; conditions: given prior to one week's treatment with PCP
Text: Bumetanide prevented the development of cognitive impairment when give prior to one weeks treatment with PCP. This is evidence that bumetanide could prevent the onset of cognitive impairment in schizophrenia and bipolar disorder. […] The discovery of these synergistic actions which will have value in the treatment of many neuropsychiatric disorders. Neurosteroids such as allopregnanolone is a GABA A agonist which could be used clinically with bumetanide to treat post-partum depression, other forms of depression.

[4] = tested on: 16p11.2DUP mice; assay: Y maze in 16p11.2 duplication mouse model; format: in vivo; conditions: 0.1 mg/kg, ip, p<0.001
Text: as §1

[5] = tested on: pyramidal neurons of the infralimbic cortex (ILC) of scPCP mice; assay: GABAA reversal potential (EGABA), perforated patch recordings in acute mPFC slices; format: cell-based; conditions: bumetanide 0.3 mg/kg ip 30-40 min before dissection, 10 uM perfused into mPFC slice in incubation and recording chambers
Protocol: FIG. 4. (A) Left Panels: Example traces of GABAA current response by electrical stimulation in mPFC pyramidal neurons in control (top panel, black) and in scPCP (bottom, red). Bipolar electrode was put in layer 1, 100-200 um apart from recording site within layer2/3 with presence of 3 mM kynurenic acid to block any glutamatergic synaptic currents. The response was evoked by the same size of single stimulus (0.2-1 mA, 0.2 ms) at five different holding voltages (−100, −80, −60, −40, −20 mV) for each neuron. For each voltage, a neuron was tested multiple times and those 5-10 traces tested at the same voltage were averaged later for peak analysis. […] Right Panels: Example GABAA reversal potential (EGABA) of a neuron in control (top panel, black) and in scPCP (bottom, red) calculated from traces shown in (A). For the individual neuron, the peak size of current responses was measured (maximal current peak if the evoked response is positive while minimal current peak if negative) and plotted by holding voltages. […] Dotted gray lines to present average resting potentials for each group, which were measured by whole-cell patch recordings from separated neuron groups (each n>7). […] Dotted gray lines represent the resting potentials, which were measured by whole-cell patch recordings in different sets of experiment (each n>7). […]

[6] = tested on: scPCP mice; assay: Novel object recognition (NOR) test in subchronic phencyclidine (scPCP) mice; format: in vivo, C57BL/6J mice; conditions: for Discrimination index, novel object recognition (rescue of scPCP-induced NOR deficit): male C57BL/6J mice
Protocol: FIG. 7. Bumetanide treatment rescues the cognitive impairment in scPCP mice. Discrimination index calculated from novel object recognition tests. […] 10 mice were measured for each experimental group.
FIG. 8. Bumetanide rescues Novel Object Recognition task in female scPCP mice. […] Data are from 9 mice per group. One-way ANOVA followed by post-hoc bonferroni correction was done where significance was observed. p<0.01. (Additional data not shown).
To begin filling this gap, here we took advantage of the subchronic phencyclidine (scPCP) treatment, which is a well-established established rodent model of cognitive deficits in schizophrenia (Jentsch and Roth, 1999; Steeds et al. 2015) and performed patch clamp recordings from pyramidal neurons in acute slices of the IL cortex (ILC) and PL cortex (PLC). (FIG. 1).
Routine for mPFC recording. 3 week-old mice were injected with saline (vehicle) or PCP (0.1 mg/kg) two times a day for 7 consecutive days and rested for another 7 days without injections. They were then sacrificed for recordings within 7 days.

[7] = tested on: PCP treated mouse; assay: Social interaction in the PCP treated mouse; format: in vivo
[8] = tested on: 16p11.2DUP mice; assay: Novel object recognition in 16p11.2 duplication mouse model; format: in vivo; conditions: 0.1 mg/kg, ip, p<0.001
Text: as §1

[9] = tested on: scPCP-treated mice subjected to chronic unpredictable stress; assay: Memory deficit in scPCP-treated mice subjected to chronic unpredictable stress (CUS); format: in vivo; conditions: chronic unpredictable stress 21 days, 0.1 mg/kg
Text: Bumetanide acts by blocking the NKCC1 cation-chloride cotransporter and causes the reversal potential of the GABAA-mediated current to become more hyperpolarized (thus the inhibitory effect becomes stronger). […] Most importantly, in-vivo administration of bumetanide rescues cognitive function in PCP mice and also prevents enduring deficit of cognitive function.

[10] = tested on: CaMK2A+/- mice; assay: Y maze in CaMK2A+/- mouse model; format: in vivo; conditions: 0.1 mg/kg, ip, p<0.001
Text: as §1

Structure (SMILES) | NOR performance ([1]; CaMK2A+/- mice, 0.1 mg/kg, ip, p<0.001) | Discrimination index, rescue of NOR deficit, single agent at the dose used in the combination [1] | PCP-induced increase in locomotor activity ([2]; PCP 10 mg/kg) | Amphetamine-induced increase in locomotor activity ([2]; amphetamine 2.5 mg/kg) | Development of cognitive impairment [3] | Y maze performance [4] | GABAA reversal potential in layer 2/3 and layer 5 of ILC [5] | Performance in the novel object recognition task ([6]; PCP-treated mice, oral administration of a single dose (FIG. 7)) | Novel Object Recognition test (rescue of scPCP-induced deficits) ([6]; female C57BL/6J mice, single dose IP, p<0.01) | Discrimination index, novel object recognition (rescue of scPCP-induced NOR deficit) ([6]; 0.1 mg/kg, ip) | Discrimination index, novel object recognition (rescue of scPCP-induced NOR deficit) ([6]; 0.3 mg/ml, icy) | Social interaction [7] | NOR performance [8] | Memory deficit [9] | Y maze performance [10]
CCCCNc1cc(C(=O)O)cc(S(N)(=O)=O)c1Oc1ccccc1 [bumetanide] | completely rescued | sub-effective | significantly blocked | significantly blocked | prevented | completely rescued | normalizes | completely rescues | significantly rescued | completely rescues | completely rescues | effective | completely rescued | significantly rescued | completely rescued
Cc1nc2n(c(=O)c1CCN1CCC(c3noc4cc(F)ccc34)CC1)CCCC2 [risperidone] | – | ineffective | – | – | – | – | – | – | – | – | – | – | – | – | –
